# Data as given in patent publication US12594421B2, “Compositions and methods for increasing cancer cell sensitivity to alternating electric fields” (NOVOCURE GMBH, priority 2020, dated 2026).
# Columns and labels:
# cancer cells [1] = assay: Apoptosis, TTFields plus GSK3β inhibitor 9-ING-41 (FIG. 19); type: cell-based; conditions: cell line and concentration not stated
# Method: (§1) Cell death was assessed by double staining of cells with FITC-conjugated annexin V (MEBCYTO© 4700 Apoptosis Kit; MBL©) and 7-Aminoactinomycin D (7-AAD; BioLegend©) as per manufacturer's instructions.
# cancer cells [2] = assay: Cell cytotoxicity, TTFields plus GSK3β inhibitor 9-ING-41 (FIG. 19); type: cell-based; conditions: cell line and concentration not stated
# Method: (§2) Cells were detached from Inovitro™ dishes with 0.5 ml Trypsin A for approximately 5 minutes and then supplemented with 0.5 ml culture media. 200 μl of cells were taken to 96 well U-shaped plate to be counted in MACSQuant 10 flow cytometer. Analysis was performed with FlowJo_V10 software and statistics was done by GraphPad Prism 8 software.
# [3] = system: Akt phosphorylation in Ser473; assay: Western blot of Akt phosphorylation (pAkt Ser473) after TTFields with BGT226; type: cell-based, human
# Method: Following TTFields application cells were transferred to cold PBS plates for wash.
# RIPA lysis buffer (R0278, Sigma-Aldrich), supplemented with a cocktail of protease (Complete Mini, Roche), and phosphatase inhibitors (Halt #78420, Thermo Scientific) was added to plates and cells were scraped with approximately 100 μl supplemented RIPA buffer for 8 Inovitro™ dishes.
# Extracts were shaken at 4° C. for a duration of 30 minutes. Samples were centrifuged (20 min, 14,000 rpm, 4° C.). supernatant was transferred and protein concentration was determined by BCA protein assay kit. […]
# After electrophoresis, proteins were transferred to 0.2 μm polyvinylidene difluoride membrane (Immuno-Blot PVDF #162-0177, Bio-Rad) and probed with the appropriate primary antibody: GAPDH (SC-32233, Santa Cruz), Vinculin (ab140007, Abcam), Cyclin D1 (2922, Cell Signaling), Rb (9309, Cell Signaling), pRb S807/811 (8516, Cell Signaling), pAkt 5473, (4051, Cell signaling), Akt (2920, Cell signaling)), FAK (3283S, Cell signaling), Phospho-FAK (Tyr397) (3283S, Cell signaling, Src (2109S, cell signaling) and Phospho-Src (Tyr416) (2101S, Cell signaling). followed by horseradish peroxidase-conjugated secondary antibody (goat anti rabbit 7074, Cell Signaling and goat anti mouse 7076, Cell Signaling) and a chemiluminescent substrate (WBLUF0100, Signa-Aldrich). Quantification of bands was done by Image J software. […]
# A2780 cells [4] = type: cell-based; conditions: for inhibition concentration 25 (IC25): concentration added for 72 h, cell line not stated in b192 (8 nM is the A2780 concentration of b155)
# Method: (§3) All cell lines were obtained from ATCC: U-87 (human glioma cell lines) and H1299 (human metastatic lung carcinoma), A2780 (ovarian cell line). Cells were cultured in Dulbecco's modified Eagle's medium (Biological Industries) or RPMI (GIBCO) medium supplemented with 5-10% fetal bovine serum and antibiotics.
# 5,000-50,000 single cells were suspended in 500 μL of media and seeded in the middle of a 22 mm diameter cover slip.
# (§4) For induction of 24 hours or longer TTFields application the cover slips were placed in a ceramic dish of Inovitro™ system and allowed to incubate in a conventional tissue culture incubator (37° C., 95% air, 5% CO2) overnight. Once cells adhered to the cover slip, an additional 1.5 mL of media were added to each well and covered in Parafilm (P7793, Sigma Aldrich) to avoid evaporation of media. After an overnight incubation dishes were mounted onto Inovitro™ base plates (Novocure Inc., Haifa, Israel). Tumor Treating electric fields set anywhere from 1-6 V/cm were applied through an Inovitro™ power generator while frequencies ranged from 50-500 kHz. Incubation temperature was 18° C. with a target temperature of 37° C. for the ceramic dishes upon application of the TTFields. Corresponding control experiments were done by placing equivalent cover slips within ceramic dishes into a conventional tissue culture incubator (37° C., 5% CO2) and cells grown in parallel with the TTField-exposed coverslips.
# (§5) BGT226, Alpalisib, Pictilisib, BKM120 and Dasatinib were added was added to cells 12-24 hours after seeding for inhibitor mono-treatment and combination treatment to a final concentration of 8 nM, 1 nm, 1 nm, 500 nm and 75 nm respectively in A2780 cells. Control and TTFields samples received same volume of DMSO. Following 72 hours of treatment media was replaced for media with no inhibitor and cells were grown for additional 96 hours. At 168 hours (7 days) cytotoxic assay was performed by GentelMACS cell count, Apoptosis assay and cells were seeded for colony assay (as specified in cell count and Quantification of cell death).
# as §2
# A2780 cells [5] = assay: Apoptosis assay (annexin V / 7-AAD), TTFields plus inhibitor; type: cell-based, human; conditions: FIG. 6E
# Method: as §5, §1
# A2780 cells [6] = assay: Colony assay (clonogenicity), TTFields plus inhibitor; type: cell-based, human; conditions: FIG. 18; BGT226 8 nM 72 h, then TTFields alone 96 h
# Method: as §5
# Colony assay: following cell count 300 cells of each treatment were seeded in duplicates in 6 well dishes with 2 ml media. Once colonies were visible they were washed with PBS. Cells were fixed in −20° C. methanol and stained with 0.5% Crystal violet. Colonies were imaged in camera and counted using Image J (FIJI).
# H1299 cells = assay: Cytotoxicity by cell count, TTFields plus Dasatinib; type: cell-based, human; conditions: H1299, TTFields 150 kHz, Dasatinib 0.03 μM (IC25) 72 h, then TTFields alone 96 h
# Method: as §3
# as §4, with “Corresponding control experiments were done by placing equivalent cover slips within ceramic dishes into a conventional tissue culture incubator (37° C., 5% CO2) and cells grown in parallel with the TTField-exposed coverslips.” left out
# Cells were detached from Inovitro™ dishes with 0.5 ml Trypsin A for approximately 5 minutes and then supplemented with 0.5 ml culture media. 200 μl of cells were taken to 96 well U-shaped plate to be counted in MACSQuant 10 flow cytometer. […]
structure (smiles),measurement,setting,value
Cn1cc(C2=C(c3coc4ccc(F)cc34)C(=O)NC2=O)c2cc3c(cc21)OCO3 [9-ING-41],"efficacy of TTFields treatment in apoptosis, combination therapy",cancer cells [1],did not increase efficacy of TTFields treatment
same,"efficacy of TTFields treatment in cell cytotoxicity, combination therapy",cancer cells [2],did not increase efficacy of TTFields treatment
COc1ccc(-c2ccc3ncc4c(c3c2)n(-c2ccc(N3CCNCC3)c(C(F)(F)F)c2)c(=O)n4C)cn1 [BGT226],phosphorylation of Akt in Ser473 following combined treatment of TTFields and BGT226,"[3]; A2780 cells, BGT226 5 nM for 72 h, then media without inhibitor 96 h, lysate at 168 hours",decrease in phosphorylation of Akt in Ser473
same,increase in Akt phosphorylation following TTFields,"[3]; Western blot, FIG. 5A-5B",inhibited by BGT226
same,cell resistance caused by pro-survival signaling by TTFields,"A2780 cells [4]; FIG. 6A-6E, cell line not stated",inhibited by BGT226
same,"cell survival, combination of TTFields with BGT226","A2780 cells [4]; FIG. 6C, cell line not stated",synergistic effect in cell survival
same,"efficacy of combination with TTFields, BGT226 compared with Paclitaxel","A2780 cells [4]; FIG. 18, BGT226 8 nM or Paclitaxel 2 nM 72 h, then TTFields alone 96 h",more effective than Paclitaxel and TTFields
same,inhibition concentration 25 (IC25),A2780 cells [4]; FIG. 18,8 nM
same,"live cells (AnnexinV-/7AAD-), inhibitor alone compared to combined treatment",A2780 cells [5],more live cells
same,"apoptotic assay, combined treatment of TTFields and inhibitor",A2780 cells [5]; cell line not stated,induce apoptosis in reminder of cells
same,"clonogenicity, combination therapy with TTFields",A2780 cells [6],dramatic effect in combination therapy with BGT226 compared to Paclitaxel
Cc1nc(Nc2ncc(C(=O)Nc3c(C)cccc3Cl)s2)cc(N2CCN(CCO)CC2)n1 [Dasatinib],"treatment efficacy of TTFields plus Dasatinib, cytotoxic effect","A2780 cells [4]; A2780, TTFields 200 kHz, Dasatinib 0.075 μM (IC25) 72 h, then TTFields alone 96 h",increased treatment efficacy relative to TTFields or inhibitor alone in all combination groups
same,"treatment efficacy of TTFields plus Dasatinib, cytotoxic effect",H1299 cells,increased treatment efficacy relative to TTFields or inhibitor alone in all combination groups
CC(=O)O[C@H]1C(=O)[C@@]2(C)[C@H]([C@H](OC(=O)c3ccccc3)[C@]3(O)C[C@H](OC(=O)[C@H](O)[C@@H](NC(=O)c4ccccc4)c4ccccc4)C(C)=C1C3(C)C)[C@]1(OC(C)=O)CO[C@@H]1C[C@@H]2O [Paclitaxel],cytotoxicity of combination with TTFields,"A2780 cells [4]; FIG. 18, Paclitaxel 2 nM 72 h, then TTFields alone 96 h",effective to a lesser extent than that of BGT226
same,inhibition concentration 25 (IC25),A2780 cells [4]; FIG. 18,2 nM
